Data published in article PMC8694051 (Proceedings of the National Academy of Sciences of the …, 2021).
Residues, ends and D or L forms follow the SMILES beside them.

Experiments:
HGFA = target: T1, HGFA (Homo sapiens, UniProt Q04756); assay: HGFA enzyme inhibition (published assays); type: biochemical
T1 sequence (Q04756 373-655): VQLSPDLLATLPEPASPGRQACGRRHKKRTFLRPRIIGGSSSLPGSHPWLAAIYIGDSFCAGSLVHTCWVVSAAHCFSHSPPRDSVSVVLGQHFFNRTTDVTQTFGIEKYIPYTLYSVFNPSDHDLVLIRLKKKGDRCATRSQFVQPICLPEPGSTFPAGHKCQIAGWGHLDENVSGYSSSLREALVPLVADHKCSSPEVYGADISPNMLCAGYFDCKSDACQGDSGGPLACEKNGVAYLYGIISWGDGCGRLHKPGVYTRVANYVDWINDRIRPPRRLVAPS

Matriptase = target: T2, Matriptase (Homo sapiens, UniProt Q9Y5Y6); assay: Matriptase enzyme inhibition (published assays); type: biochemical
T2 sequence (Q9Y5Y6 1-855): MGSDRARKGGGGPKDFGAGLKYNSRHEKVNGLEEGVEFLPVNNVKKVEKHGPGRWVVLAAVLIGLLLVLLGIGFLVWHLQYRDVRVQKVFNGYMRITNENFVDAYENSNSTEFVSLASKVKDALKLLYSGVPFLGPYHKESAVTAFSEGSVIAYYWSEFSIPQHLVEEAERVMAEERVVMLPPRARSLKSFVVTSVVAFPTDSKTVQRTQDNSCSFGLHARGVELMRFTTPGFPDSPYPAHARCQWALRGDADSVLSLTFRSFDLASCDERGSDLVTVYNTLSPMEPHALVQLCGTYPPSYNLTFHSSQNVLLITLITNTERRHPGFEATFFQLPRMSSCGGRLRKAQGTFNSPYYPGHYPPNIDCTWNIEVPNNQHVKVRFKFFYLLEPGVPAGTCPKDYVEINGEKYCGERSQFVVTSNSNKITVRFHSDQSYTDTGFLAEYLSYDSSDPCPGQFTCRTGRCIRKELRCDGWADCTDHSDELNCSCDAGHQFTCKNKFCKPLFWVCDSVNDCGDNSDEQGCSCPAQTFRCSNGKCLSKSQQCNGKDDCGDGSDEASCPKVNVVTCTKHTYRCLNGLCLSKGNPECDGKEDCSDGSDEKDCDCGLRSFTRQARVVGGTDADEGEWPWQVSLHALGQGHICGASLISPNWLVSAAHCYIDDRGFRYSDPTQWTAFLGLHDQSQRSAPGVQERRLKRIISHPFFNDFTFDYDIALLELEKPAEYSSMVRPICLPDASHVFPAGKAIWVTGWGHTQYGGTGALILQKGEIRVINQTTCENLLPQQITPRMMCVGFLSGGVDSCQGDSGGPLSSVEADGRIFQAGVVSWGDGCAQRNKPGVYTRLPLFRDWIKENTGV

Factor Xa = Factor Xa (Homo sapiens, UniProt P00742); assay: Factor Xa enzyme inhibition (published assays); type: biochemical
Sequence of Factor Xa (P00742 235-488 limits assumed): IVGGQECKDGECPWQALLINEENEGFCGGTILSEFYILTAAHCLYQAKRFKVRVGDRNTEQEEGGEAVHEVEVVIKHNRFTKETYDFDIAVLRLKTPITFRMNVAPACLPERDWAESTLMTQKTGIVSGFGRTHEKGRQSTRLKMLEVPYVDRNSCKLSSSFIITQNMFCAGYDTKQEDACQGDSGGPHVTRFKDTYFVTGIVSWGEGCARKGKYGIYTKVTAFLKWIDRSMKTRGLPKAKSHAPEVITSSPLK
Sequence of Factor Xa (P00742 41-179 partner limits assumed): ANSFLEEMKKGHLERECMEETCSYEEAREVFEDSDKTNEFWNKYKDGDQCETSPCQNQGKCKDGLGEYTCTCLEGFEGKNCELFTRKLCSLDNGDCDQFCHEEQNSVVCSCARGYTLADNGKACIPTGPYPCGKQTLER

[1] = system: VSV-SARS-CoV-2-Spike protein Pseudotype virus; assay: microbe, parasite or virus in culture; type: cell-based; details: Vesicular stomatitis virus, Calu-3, read-out: VSV-SARS-CoV-2 Calu-3 EC50 (nM)
VSV-MERS = assay: microbe, parasite or virus in culture; type: cell-based, MERS-CoV; details: Middle East respiratory syndrome-related coronavirus, Calu-3, read-out: MERS VSV pseudotype Calu-3 EC50 (nM)
Caspase 14 = Caspase 14 (Homo sapiens, UniProt P31944); assay: Protease profiling panel, 10-dose IC50; type: biochemical
Sequence of Caspase 14 (P31944 6-242, species assumed): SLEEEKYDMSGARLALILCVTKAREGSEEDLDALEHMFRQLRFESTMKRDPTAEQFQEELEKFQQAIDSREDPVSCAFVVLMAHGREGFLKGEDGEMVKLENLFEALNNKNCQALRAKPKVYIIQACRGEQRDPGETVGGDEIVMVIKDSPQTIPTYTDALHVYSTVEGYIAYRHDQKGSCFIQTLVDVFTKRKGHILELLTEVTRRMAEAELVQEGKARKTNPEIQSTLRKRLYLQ

FVIIa = FVIIa (Homo sapiens, UniProt P08709); assay: Protease profiling panel, 10-dose IC50; type: biochemical
Sequence of FVIIa (P08709 213-466 limits assumed): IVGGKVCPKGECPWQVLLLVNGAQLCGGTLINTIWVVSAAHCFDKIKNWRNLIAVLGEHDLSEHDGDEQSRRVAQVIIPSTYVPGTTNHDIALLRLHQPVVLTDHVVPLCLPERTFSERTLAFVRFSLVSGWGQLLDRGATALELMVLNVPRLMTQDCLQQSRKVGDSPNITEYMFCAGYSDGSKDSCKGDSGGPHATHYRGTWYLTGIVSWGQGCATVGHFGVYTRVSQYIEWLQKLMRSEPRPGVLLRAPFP
Sequence of FVIIa (P08709 61-212 partner limits assumed): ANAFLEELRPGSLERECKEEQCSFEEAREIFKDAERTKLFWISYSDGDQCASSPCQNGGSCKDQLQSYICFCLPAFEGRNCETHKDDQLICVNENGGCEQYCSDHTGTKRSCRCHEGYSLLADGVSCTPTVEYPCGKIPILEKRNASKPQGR

Thrombin = Thrombin (Homo sapiens, UniProt P00734); assay: Thrombin enzyme inhibition (published assays); type: biochemical
wild-type SARS-CoV-2 = assay: microbe, parasite or virus in culture; type: cell-based; details: Severe acute respiratory syndrome coronavirus 2, Calu-3, 72 h, read-out: SARS-CoV-2 Wild-type Calu-3 IC50 (nM)
in vitro [2] = details: mouse, plasma
in vitro [3] = details: human, plasma
Cathepsin G = Cathepsin G (Homo sapiens, UniProt P08311); assay: Protease profiling panel, 10-dose IC50; type: biochemical
Sequence of Cathepsin G (P08311 21-255, species assumed): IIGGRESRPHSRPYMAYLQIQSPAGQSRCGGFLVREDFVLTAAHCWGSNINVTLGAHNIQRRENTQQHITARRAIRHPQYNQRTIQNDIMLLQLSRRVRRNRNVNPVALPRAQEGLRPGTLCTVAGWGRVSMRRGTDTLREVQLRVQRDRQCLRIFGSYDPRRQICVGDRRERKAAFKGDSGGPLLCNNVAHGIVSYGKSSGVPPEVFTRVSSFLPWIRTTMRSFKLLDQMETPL

Chymase = Chymase (Homo sapiens, UniProt P23946); assay: Protease profiling panel, 10-dose IC50; type: biochemical
Sequence of Chymase (P23946 22-247, species assumed): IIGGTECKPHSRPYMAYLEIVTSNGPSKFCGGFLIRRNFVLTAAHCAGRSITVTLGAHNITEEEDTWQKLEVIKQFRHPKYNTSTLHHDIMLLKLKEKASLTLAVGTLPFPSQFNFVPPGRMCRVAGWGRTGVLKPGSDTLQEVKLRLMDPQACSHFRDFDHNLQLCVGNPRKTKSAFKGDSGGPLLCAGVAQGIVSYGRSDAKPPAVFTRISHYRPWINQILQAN

## CN(C)C(=O)COC(=O)Cc1ccc(OC(=O)c2ccc(NC(=N)N)cc2)cc1 [Camostat, reference compound]
HGFA
  IC50: > 20000 nM
Matriptase
  IC50: 7 nM
Factor Xa
  IC50: > 20000 nM
[1]
  EC50: 83 nM
VSV-MERS
  EC50: 5 nM

## CC(=O)N[C@@H](Cc1c[nH]c2ccccc12)C(=O)N[C@@H](CCC(=O)O)C(=O)N[C@@H](Cc1cnc[nH]1)C(=O)N[C@H](C=O)CC(=O)O [WEHD-CHO] (Ac-WEHD-aldehyde)
Caspase 14
  IC50: 68.2 nM

## N=C(N)c1ccc2nc(-c3cc(CC(=O)N[C@@H](CC(=O)O)C(=O)O)cc(-c4cc(S(N)(=O)=O)ccc4O)c3O)[nH]c2c1 [PCI 27483]
FVIIa
  IC50: 57.5 nM

## CC(=O)N[C@@H](CCC(N)=O)C(=O)N[C@@H](Cc1ccccc1)C(=O)N[C@@H](CCCNC(=N)N)C(=O)c1nc2ccccc2s1 [Compound 6, Ac-QFR-kbt]
HGFA
  IC50: 14 nM
Thrombin
  IC50: > 20000 nM
Factor Xa
  IC50: 1.4 nM
wild-type SARS-CoV-2
  IC50: 105 nM
In vitro [2]
  half-life: > 4.82 h
In vitro [3]
  half-life: > 4.82 h

## CC(C)C[C@H](NC(=O)[C@@H](NC(=O)N[C@@H](Cc1ccccc1)C(=O)O)[C@@H]1CCN=C(N)N1)C(=O)N[C@H](C=O)Cc1ccccc1 [Chymostatin]
Cathepsin G
  IC50: 4040 nM
Chymase
  IC50: 10.1 nM
